# According to patent US20230233569A1 (Revolution Medicines, Inc., priority 2020, published 2023):
# Like-named read-outs stand apart in the source and are kept apart here.
# Columns and labels:
# KRAS G12C = KRAS G12C (Homo sapiens, UniProt P01116+P62937, G12C); assay: Disruption of BRAF RBD interaction with Ras (FRET / MOA assay, with Cyclophilin A); type: biochemical
# In short: (§1)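 Measured via TR-FRET after 3 h at 25 °C with compound (30 μM top, threefold serial steps, ten concentrations) plus K-Ras, Cyclophilin A and BRAF RBD, followed by 1.5 h with anti-His europium (10 nM) and anti-GST allophycocyanin (50 nM). Signal loss versus DMSO gave IC50.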
# KRAS G13D = KRAS G13D (Homo sapiens, UniProt P01116+P62937, G13D); assay: as above; type: biochemical
# KRAS G13D, sequence (P01116 1-169 isoform P01116-2 G13D limits assumed): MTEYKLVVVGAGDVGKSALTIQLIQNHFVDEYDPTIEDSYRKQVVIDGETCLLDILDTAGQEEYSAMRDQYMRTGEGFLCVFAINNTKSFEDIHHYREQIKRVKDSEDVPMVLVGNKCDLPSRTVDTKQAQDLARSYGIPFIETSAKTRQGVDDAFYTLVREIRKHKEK
# KRAS G13D, sequence (P62937 whole entry): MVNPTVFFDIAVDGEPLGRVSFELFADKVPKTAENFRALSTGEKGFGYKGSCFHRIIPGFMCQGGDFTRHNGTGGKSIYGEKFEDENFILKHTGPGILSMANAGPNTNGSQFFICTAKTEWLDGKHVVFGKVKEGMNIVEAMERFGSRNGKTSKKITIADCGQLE
# In short: as §1
# KRAS G12D = KRAS G12D (Homo sapiens, UniProt P01116+P62937, G12D); assay: as above; type: biochemical
# KRAS G12D, sequence (P01116 1-169 isoform P01116-2 G12D limits assumed): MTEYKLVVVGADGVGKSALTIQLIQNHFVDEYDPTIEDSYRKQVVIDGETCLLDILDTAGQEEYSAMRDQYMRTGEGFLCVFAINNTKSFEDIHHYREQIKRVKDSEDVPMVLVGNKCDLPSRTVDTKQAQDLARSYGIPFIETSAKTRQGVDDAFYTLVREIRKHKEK
# KRAS G12D, sequence (P62937 whole entry): as the sequence (P62937 whole entry) above
# In short: as §1
# KRAS G12S = KRAS G12S (Homo sapiens, UniProt P01116+P62937, G12S); assay: as above; type: biochemical
# KRAS G12S, sequence (P01116 1-169 isoform P01116-2 G12S limits assumed): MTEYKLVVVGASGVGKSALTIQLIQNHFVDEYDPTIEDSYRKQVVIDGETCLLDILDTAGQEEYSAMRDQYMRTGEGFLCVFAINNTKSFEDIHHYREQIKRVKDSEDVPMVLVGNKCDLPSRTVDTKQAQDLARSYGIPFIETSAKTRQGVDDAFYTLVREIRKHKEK
# KRAS G12S, sequence (P62937 whole entry): as the sequence (P62937 whole entry) above
# In short: as §1
# KRAS G12V = KRAS G12V (Homo sapiens, UniProt P01116+P62937, G12V); assay: as above; type: biochemical
# KRAS G12V, sequence (P01116 1-169 isoform P01116-2 G12V limits assumed): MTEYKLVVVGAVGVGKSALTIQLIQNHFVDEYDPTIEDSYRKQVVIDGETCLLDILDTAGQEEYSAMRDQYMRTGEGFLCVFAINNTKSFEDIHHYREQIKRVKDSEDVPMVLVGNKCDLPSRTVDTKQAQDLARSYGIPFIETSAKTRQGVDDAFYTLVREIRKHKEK
# KRAS G12V, sequence (P62937 whole entry): as the sequence (P62937 whole entry) above
# In short: as §1
# NRAS G12C = NRAS G12C (Homo sapiens, UniProt P01111+P62937, G12C); assay: as above; type: biochemical
# NRAS G12C, sequence (P01111 whole entry G12C): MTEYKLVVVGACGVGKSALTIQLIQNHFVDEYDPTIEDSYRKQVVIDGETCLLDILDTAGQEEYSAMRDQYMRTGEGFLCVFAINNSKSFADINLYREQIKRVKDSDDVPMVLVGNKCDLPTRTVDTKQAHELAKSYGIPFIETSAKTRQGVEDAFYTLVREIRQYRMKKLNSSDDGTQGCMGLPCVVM
# NRAS G12C, sequence (P62937 whole entry): as the sequence (P62937 whole entry) above
# KRAS WT = KRAS WT (Homo sapiens, UniProt P01116+P62937); assay: as above; type: biochemical
# KRAS WT, sequence (P01116 1-169 isoform P01116-2 limits assumed): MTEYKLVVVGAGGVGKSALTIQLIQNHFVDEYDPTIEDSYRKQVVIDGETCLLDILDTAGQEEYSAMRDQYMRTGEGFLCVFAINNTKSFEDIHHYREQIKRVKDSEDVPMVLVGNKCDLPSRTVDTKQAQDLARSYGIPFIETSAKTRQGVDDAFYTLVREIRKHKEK
# KRAS WT, sequence (P62937 whole entry): as the sequence (P62937 whole entry) above
# In short: as §1
# KRAS G13C = KRAS G13C (Homo sapiens, UniProt P01116+P62937, G13C); assay: as above; type: biochemical
# KRAS G13C, sequence (P01116 1-169 isoform P01116-2 G13C): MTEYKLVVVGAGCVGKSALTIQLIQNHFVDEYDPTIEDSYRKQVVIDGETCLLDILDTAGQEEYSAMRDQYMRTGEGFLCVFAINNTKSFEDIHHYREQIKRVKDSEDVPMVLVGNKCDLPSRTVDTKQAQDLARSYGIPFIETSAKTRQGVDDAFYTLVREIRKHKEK
# KRAS G13C, sequence (P62937 whole entry): as the sequence (P62937 whole entry) above
# In short: as §1
# NCI-H358 (K-Ras G12C) = assay: CellTiter-Glo cell viability assay, 5-day treatment; type: cell-based; details: Homo sapiens, NCI-H358, 120 h, 5-day treatment; read-out: H358 Cell Viability assay data (K-Ras G12C, IC50)
# In short: (§2)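 Luminescence read-out after 5 days of compound exposure, with plates first brought to room temperature for roughly 30 minutes. Values are percent of averaged DMSO wells, fitted by four-parameter logistic regression.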
# Capan-1 (K-Ras G12V) = assay: as above; type: cell-based; details: Homo sapiens, CAPAN-1, 120 h, 5-day treatment; read-out: Capan-1 Cell Viability assay data (K-Ras G12V, IC50)
# In short: as §2
# [1] = read-out: KRAS G12C FRET data, IC50
# [2] = KRAS G13D, read-out: KRAS G13D FRET data IC50
# [3] = read-out: KRAS G12D FRET data, IC50
# [4] = read-out: KRAS G12S FRET data, IC50
# [5] = KRAS G12V, read-out: KRAS G12V FRET data IC50
# [6] = NRAS G12C, read-out: NRAS G12C FRET data IC50
# [7] = KRAS WT, read-out: KRAS WT FRET data IC50
# [8] = read-out: KRAS G13C FRET data, IC50
# KRAS G12C, sequence (P01116 1-169 isoform P01116-2 G12C): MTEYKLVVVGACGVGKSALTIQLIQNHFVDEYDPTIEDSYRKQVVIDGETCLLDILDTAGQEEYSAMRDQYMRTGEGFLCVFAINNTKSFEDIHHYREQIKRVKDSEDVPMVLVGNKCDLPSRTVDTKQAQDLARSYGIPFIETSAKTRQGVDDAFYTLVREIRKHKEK
# KRAS G12C, sequence (P62937 whole entry): as the sequence (P62937 whole entry) above
Compound,IC50 (KRAS G12C; [1]),IC50 (KRAS G13D; [2]),IC50 (KRAS G12D; [3]),IC50 (KRAS G12S; [4]),IC50 (KRAS G12V; [5]),IC50 (NRAS G12C; [6]),IC50 (KRAS WT; [7]),IC50 (KRAS G13C; [8]),IC50 (NCI-H358 (K-Ras G12C)),"IC50 (KRAS G12C; KRAS G12C FRET data, IC50)","IC50 (KRAS G13D; KRAS G13D FRET data IC50, KRAS G13D)","IC50 (KRAS G12D; KRAS G12D FRET data, IC50)","IC50 (KRAS G12S; KRAS G12S FRET data, IC50)","IC50 (KRAS G12V; KRAS G12V FRET data IC50, KRAS G12V)","IC50 (NRAS G12C; NRAS G12C FRET data IC50, NRAS G12C)","IC50 (KRAS WT; KRAS WT FRET data IC50, KRAS WT)","IC50 (KRAS G13C; KRAS G13C FRET data, IC50)",IC50 (Capan-1 (K-Ras G12V))
CCn1c(-c2cccnc2[C@H](C)OC)c2c3cc(ccc31)-c1cc(O)cc(c1)C[C@H](NC(=O)[C@H](C(C)C)N(C)C(=O)C1CNC1)C(=O)N1CCC[C@H](N1)C(=O)OCC(C)(C)C2 [Example A125],10 to 100 nM,10 to 100 nM,10 to 100 nM,10 to 100 nM,100 to 1000 nM,10 to 100 nM,10 to 100 nM,10 to 100 nM,1000 to 10000 nM,,,,,,,,,1000 to 10000 nM
CCn1c(-c2cccnc2[C@H](C)OC)c2c3cc(ccc31)-c1cc(O)cc(c1)C[C@H](NC(=O)[C@H](C(C)C)N(C)C(=O)[C@H]1CCN[C@H]1C)C(=O)N1CCC[C@H](N1)C(=O)OCC(C)(C)C2 [Example A127],10 to 100 nM,10 to 100 nM,10 to 100 nM,10 to 100 nM,100 to 1000 nM,10 to 100 nM,10 to 100 nM,10 to 100 nM,1000 to 10000 nM,,,,,,,,,> 10000 nM
CCn1c(-c2cccnc2[C@H](C)OC)c2c3cc(ccc31)-c1cc(O)cc(c1)C[C@H](NC(=O)[C@H](C(C)C)N(C)C(=O)[C@@H]1CCNC1)C(=O)N1CCC[C@H](N1)C(=O)OCC(C)(C)C2 [Example A129],10 to 100 nM,10 to 100 nM,10 to 100 nM,10 to 100 nM,100 to 1000 nM,10 to 100 nM,10 to 100 nM,10 to 100 nM,1000 to 10000 nM,,,,,,,,,1000 to 10000 nM
CCn1c(-c2cccnc2[C@H](C)OC)c2c3cc(ccc31)-c1cc(O)cc(c1)C[C@H](NC(=O)[C@H](C(C)C)N(C)C(=O)C1CC3CC1CN3)C(=O)N1CCC[C@H](N1)C(=O)OCC(C)(C)C2 (some centres unmarked) [Example A133],100 to 1000 nM,10 to 100 nM,10 to 100 nM,100 to 1000 nM,1000 to 10000 nM,100 to 1000 nM,100 to 1000 nM,10 to 100 nM,> 10000 nM,,,,,,,,,> 10000 nM

# Now from value to molecule, other results behind:
IC50 (KRAS G12C; [1]),IC50 (KRAS G13D; [2]),IC50 (KRAS G12D; [3]),IC50 (KRAS G12S; [4]),IC50 (KRAS G12V; [5]),IC50 (NRAS G12C; [6]),IC50 (KRAS WT; [7]),IC50 (KRAS G13C; [8]),IC50 (NCI-H358 (K-Ras G12C)),"IC50 (KRAS G12C; KRAS G12C FRET data, IC50)","IC50 (KRAS G13D; KRAS G13D FRET data IC50, KRAS G13D)","IC50 (KRAS G12D; KRAS G12D FRET data, IC50)","IC50 (KRAS G12S; KRAS G12S FRET data, IC50)","IC50 (KRAS G12V; KRAS G12V FRET data IC50, KRAS G12V)","IC50 (NRAS G12C; NRAS G12C FRET data IC50, NRAS G12C)","IC50 (KRAS WT; KRAS WT FRET data IC50, KRAS WT)","IC50 (KRAS G13C; KRAS G13C FRET data, IC50)",Compound,IC50 (Capan-1 (K-Ras G12V))
100 to 1000 nM,100 to 1000 nM,100 to 1000 nM,100 to 1000 nM,1000 to 10000 nM,100 to 1000 nM,100 to 1000 nM,10 to 100 nM,1000 to 10000 nM,,,,,,,,,CCn1c(-c2cnccc2COC)c2c3cc(ccc31)-c1cc(O)cc(c1)C[C@H](NC(=O)[C@H](C(C)C)N(C)C(=O)OC1CN(C)C1)C(=O)N1CCC[C@H](N1)C(=O)OCC(C)(C)C2 [Example A101],1000 to 10000 nM
10 to 100 nM,10 to 100 nM,10 to 100 nM,10 to 100 nM,1000 to 10000 nM,100 to 1000 nM,10 to 100 nM,10 to 100 nM,1000 to 10000 nM,,,,,,,,,CCn1c(-c2cccnc2[C@H](C)OC)c2c3cc(ccc31)-c1cc(O)cc(c1)C[C@H](NC(=O)[C@H](C(C)C)N(C)C(=O)[C@H]1CCN(CCO)C1)C(=O)N1CCC[C@H](N1)C(=O)OCC(C)(C)C2 [Example A111],1000 to 10000 nM
,,,,,,,,100 to 1000 nM,100 to 1000 nM,100 to 1000 nM,100 to 1000 nM,100 to 1000 nM,100 to 1000 nM,100 to 1000 nM,100 to 1000 nM,10 to 100 nM,CCn1c(-c2cccnc2[C@H](C)OC)c2c3cc(ccc31)-c1cc(O)cc(c1)C[C@H](NC(=O)[C@H](C(C)C)N(C)C(=O)C1CCN3CCOCC13)C(=O)N1CCC[C@H](N1)C(=O)OCC(C)(C)C2 (some centres unmarked) [Example A123],100 to 1000 nM
10 to 100 nM,100 to 1000 nM,100 to 1000 nM,100 to 1000 nM,100 to 1000 nM,100 to 1000 nM,10 to 100 nM,10 to 100 nM,100 to 1000 nM,,,,,,,,,CCn1c(-c2cccnc2[C@H](C)OC)c2c3cc(ccc31)-c1cc(O)cc(c1)C[C@H](NC(=O)[C@H](C(C)C)N(C)C(=O)Cc1cc[nH]n1)C(=O)N1CCC[C@H](N1)C(=O)OCC(C)(C)C2 [Example A126],100 to 1000 nM
